Source: paper PMC6400216 (Angewandte Chemie (International ed. in English), 2017)
Bridge positions count the residues as written; N and C are the ends. Square brackets hold non-standard residues; d marks the D form. Peptide text beside a SMILES is read from it. NMeF = CN[C@@H](Cc1ccccc1)C(=O)O; NMeNle = CCCC[C@H](NC)C(=O)O; NMeA = CN[C@@H](C)C(=O)O; Sar = CNCC(=O)O

Columns and labels:
[1] = tested on: PD-L1; assay: differential scanning fluorimetry; assay type: binding; conditions: DSF; for melting temperature of PD-L1 (Tm): PD-L1 alone Tm 37.6°C; for stabilization of PD-L1 against thermal induced unfolding: relative to PD-L1 alone (Tm 37.6°C)
[2] = tested on: PD-L1; assay: X-ray crystallography of PD-L1/peptide complexes; assay type: binding; conditions: crystal structures of PD-L1/peptide-71 (2.5 Å) and PD-L1/peptide-57 (below 1 Å)

**Q.** `CCCC[C@H]1C(=O)N(C)[C@@H](CCCC)C(=O)N[C@@H](CCCNC(=N)N)C(=O)N[C@H](C(=O)NCC(N)=O)CSCC(=O)N[C@@H](Cc2ccccc2)C(=O)N(C)[C@@H](C)C(=O)N[C@@H](CC(N)=O)C(=O)N2CCC[C@H]2C(=O)N[C@@H](Cc2c[nH]cn2)C(=O)N[C@@H](CC(C)C)C(=O)N(C)CC(=O)N[C@@H](Cc2c[nH]c3ccccc23)C(=O)N[C@@H](CO)C(=O)N[C@@H](Cc2c[nH]c3ccccc23)C(=O)N1C` [peptide-57] ({CH2CO}-F[NMeA]NPHL[Sar]WSW[NMeNle][NMeNle]RCG-NH2; thioether N-14; N-terminus and C-terminus assumed) was tested. Which “melting temperature of PD-L1 (Tm)” value [1] did it give?
**A.** 51.6 °C

**Q.** What about the “stabilization of PD-L1 against thermal induced unfolding” value [1] of the same compound?
**A.** 14 °C

**Q.** What about the “binding site on PD-L1” value [2] of the same compound?
**A.** bind to PD-L1 partially at the site of the PD-1 interaction

**Q.** How did the “melting temperature of PD-L1 (Tm)” value [1] turn out when `CCCC[C@H]1C(=O)N(C)CC(=O)N[C@@H](CC(=O)O)C(=O)N[C@@H](C(C)C)C(=O)N(C)[C@@H](Cc2ccccc2)C(=O)N[C@@H](Cc2ccc(O)cc2)C(=O)N(C)CC(=O)N[C@@H](Cc2c[nH]c3ccccc23)C(=O)N[C@@H](Cc2ccc(O)cc2)C(=O)N[C@@H](CC(C)C)C(=O)N[C@H](C(=O)NCC(N)=O)CSCC(=O)N[C@@H](Cc2ccccc2)C(=O)N(C)[C@@H](Cc2ccccc2)C(=O)N1C` [peptide-71] ({CH2CO}-F[NMeF][NMeNle][Sar]DV[NMeF]Y[Sar]WYLCG-NH2; thioether N-13; N-terminus and C-terminus assumed) was run?
**A.** 56.6 °C

**Q.** And the “stabilization of PD-L1 against thermal induced unfolding” value [1]?
**A.** 19 °C

**Q.** What about the “binding site on PD-L1” value [2] of the same compound?
**A.** bind to PD-L1 partially at the site of the PD-1 interaction
